The text below walks through data of US12065436B2, “Cardiac sarcomere inhibitors” (Cytokinetics, Inc., priority 2018, dated 2024).

Read-outs that look alike come from different tables or passages of the source.

For test [1], the system named is rat cardiac contractility (left ventricle fractional shortening). In words: Echocardiography of acute effect on rat cardiac contractility, continuous IV infusion. In kind it is in vivo, Sprague Dawley rats. Conditions: plasma concentration at which fractional shortening is 50% of pre-dose baseline, estimated, read-out: IC50 (Mean ± S.D.). As for the experimental part: (§1) Assessment of in vivo cardiac function by echocardiography was performed in male Sprague Dawley rats under isoflurane (1-3%) anesthesia. 2-D M-mode images of the left ventricle were acquired in the parasternal long-axis view before, during, and after administration of compounds by continuous IV infusion or oral gavage. In vivo fractional shortening was determined by M-mode image analysis with the following calculation: ((End diastolic diameter−end systolic diameter)/end diastolic diameter×100). For continuous IV infusion experiments, three pre-dose baseline M-mode images were taken at 1 minute intervals prior to infusion of compound. Compounds were formulated in 50% Propylene Glycol (PG): 16% Captisol: 10% dimethylacetamide (DMA) and delivered via a jugular vein catheter at the rate of 1 mL/kg/h. During infusion, M-mode images were taken at 5 minute intervals. The infusion stopped when fractional shortening reached up to a 60% reduction from baseline. Blood samples were taken to determine the plasma concentration of the compounds. Data was reported as an estimated IC50 value, which is the concentration at which fractional shortening is 50% of the pre-dose baseline contractility.

Test [2] concerns the target bovine cardiac myofibrils (full-length cardiac myosin ATPase in the native sarcomere) (Bos taurus (Bovine), UniProt Q9BE39). In words: Skinned bovine cardiac myofibril ATPase assay (PK/LDH-coupled). It counts as biochemical. Conditions: Ca2+ activating to 75% of maximal rate; for CDMF75 IC15: concentration giving 15% inhibition; for IC50: read-out: CDMF75 IC50. The essentials: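 Triton-skinned bovine left-ventricle myofibrils (1 mg/mL) in PM 12 buffer (12 mM PIPES, 2 mM MgCl2, pH 6.8) with 50 μM ATP, 0.6 mM EGTA and CaCl2 set for 50% or 75% activation. Steady-state ATPase inhibition followed by PK/LDH-coupled NADH oxidation at 340 nm.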

The test system of test [3] is rat cardiac contractility (left ventricle fractional shortening). In words: Echocardiography of acute effect on rat cardiac contractility, oral gavage. In kind it is in vivo, Sprague Dawley rats. Conditions: for inhibition in vivo at 10 mg/kg / IC50 / inhibition in vivo at 8 mg/kg / inhibition in vivo at 6 mg/kg / inhibition in vivo at 4 mg/kg: Rattus norvegicus; for inhibition in vivo at 10 mg/kg / inhibition in vivo at 8 mg/kg / inhibition in vivo at 6 mg/kg / inhibition in vivo at 4 mg/kg: oral gavage; for IC50 / IC10: oral dosing, estimated; for IC50: plasma concentration at which fractional shortening is 50% of pre-dose baseline; for IC10: plasma concentration at which. As for the experimental part:
as §1
For oral dosing studies, three pre-dose baseline M-Mode images were taken at 1 minute intervals prior to compound administration. Compounds were formulated in a 0.5% hydroxypropyl methylcellulose 2910 (HPMC 2910): 0.1% Tween 80 suspension and delivered as a single dose (5 mL/kg) by oral gavage. Rats were lightly anesthetized for M-Mode echocardiography measurements at select time points over a 24 hour period. Different dose levels were evaluated for each compound. The compound effect on cardiac fractional shortening at the highest dose evaluated is presented in Table D as a percent reduction of baseline fractional shortening (=100%).
Concurrent with echocardiography measurements, blood samples were taken to determine the corresponding compound plasma concentration.

[4] abbreviates: 1 h, 1-2 h post dose, read-out: FS (% reduction from baseline) at 1-2 h post dose (Mean ± S.D.).
[5] abbreviates: 4 h post dose, read-out: FS (% reduction from baseline) at 4 h post dose (Mean ± S.D.).

As a reminder, the IC50 is the point on the concentration scale where inhibition reaches its midpoint. The IC10 is the point of the concentration-response curve where the effect stands at 10%.

bovine cardiac myofibrils (full-length cardiac myosin ATPase in the native sarcomere), sequence (Q9BE39 whole entry): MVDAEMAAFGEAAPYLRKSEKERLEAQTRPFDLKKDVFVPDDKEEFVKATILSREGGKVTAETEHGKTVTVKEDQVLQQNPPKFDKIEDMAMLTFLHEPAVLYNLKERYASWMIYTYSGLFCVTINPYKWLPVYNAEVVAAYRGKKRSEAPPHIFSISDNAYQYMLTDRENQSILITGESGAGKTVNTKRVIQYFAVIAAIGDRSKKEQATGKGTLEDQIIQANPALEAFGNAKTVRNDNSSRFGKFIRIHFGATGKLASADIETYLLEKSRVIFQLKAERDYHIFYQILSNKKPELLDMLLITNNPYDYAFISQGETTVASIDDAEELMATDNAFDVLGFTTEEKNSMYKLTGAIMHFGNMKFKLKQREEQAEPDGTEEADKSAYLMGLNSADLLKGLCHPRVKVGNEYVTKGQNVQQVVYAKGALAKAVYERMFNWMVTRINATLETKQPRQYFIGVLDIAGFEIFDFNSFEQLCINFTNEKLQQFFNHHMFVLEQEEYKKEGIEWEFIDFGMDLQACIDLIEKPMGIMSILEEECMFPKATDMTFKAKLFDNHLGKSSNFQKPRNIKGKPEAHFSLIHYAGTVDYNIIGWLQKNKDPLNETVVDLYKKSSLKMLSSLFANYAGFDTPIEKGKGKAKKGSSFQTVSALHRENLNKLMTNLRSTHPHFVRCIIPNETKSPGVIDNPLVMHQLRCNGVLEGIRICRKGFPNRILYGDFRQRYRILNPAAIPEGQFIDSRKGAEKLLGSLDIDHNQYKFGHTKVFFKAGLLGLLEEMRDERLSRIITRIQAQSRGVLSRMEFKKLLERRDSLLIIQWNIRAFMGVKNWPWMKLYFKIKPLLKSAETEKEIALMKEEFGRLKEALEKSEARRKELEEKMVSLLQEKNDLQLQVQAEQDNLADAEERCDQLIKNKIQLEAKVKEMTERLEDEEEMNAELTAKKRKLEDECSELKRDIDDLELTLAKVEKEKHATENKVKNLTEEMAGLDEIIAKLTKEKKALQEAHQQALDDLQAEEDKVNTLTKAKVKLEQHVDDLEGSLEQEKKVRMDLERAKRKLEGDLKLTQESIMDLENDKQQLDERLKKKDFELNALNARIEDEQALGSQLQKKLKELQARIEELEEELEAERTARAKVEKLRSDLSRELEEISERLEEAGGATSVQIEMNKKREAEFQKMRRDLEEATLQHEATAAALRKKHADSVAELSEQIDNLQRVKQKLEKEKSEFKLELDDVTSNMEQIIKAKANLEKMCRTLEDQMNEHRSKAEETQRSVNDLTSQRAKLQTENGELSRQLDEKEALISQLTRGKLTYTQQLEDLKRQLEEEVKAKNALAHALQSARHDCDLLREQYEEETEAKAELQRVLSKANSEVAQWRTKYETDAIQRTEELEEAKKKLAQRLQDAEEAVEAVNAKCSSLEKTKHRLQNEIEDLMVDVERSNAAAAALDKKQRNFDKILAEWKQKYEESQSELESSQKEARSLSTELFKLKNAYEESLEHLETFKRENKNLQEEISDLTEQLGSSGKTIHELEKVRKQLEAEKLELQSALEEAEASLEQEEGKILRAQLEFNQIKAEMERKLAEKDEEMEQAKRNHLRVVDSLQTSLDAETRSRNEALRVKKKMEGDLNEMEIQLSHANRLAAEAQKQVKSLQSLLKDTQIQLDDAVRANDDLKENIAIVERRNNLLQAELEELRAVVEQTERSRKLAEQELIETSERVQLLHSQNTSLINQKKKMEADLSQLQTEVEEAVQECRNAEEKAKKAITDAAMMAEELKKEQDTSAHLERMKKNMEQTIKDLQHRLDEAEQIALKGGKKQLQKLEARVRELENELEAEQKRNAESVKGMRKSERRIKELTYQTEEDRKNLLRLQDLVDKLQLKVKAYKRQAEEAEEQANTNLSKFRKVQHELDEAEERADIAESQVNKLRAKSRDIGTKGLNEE
bovine cardiac myofibrils (full-length cardiac myosin ATPase in the native sarcomere), sequence (P85100 whole entry partner): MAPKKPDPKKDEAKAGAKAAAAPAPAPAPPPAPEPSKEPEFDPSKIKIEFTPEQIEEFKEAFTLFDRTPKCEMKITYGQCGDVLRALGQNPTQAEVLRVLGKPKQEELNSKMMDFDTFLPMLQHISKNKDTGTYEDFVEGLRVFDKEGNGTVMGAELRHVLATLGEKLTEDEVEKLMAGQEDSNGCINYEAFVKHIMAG
bovine cardiac myofibrils (full-length cardiac myosin ATPase in the native sarcomere), sequence (Q3SZE5 whole entry partner): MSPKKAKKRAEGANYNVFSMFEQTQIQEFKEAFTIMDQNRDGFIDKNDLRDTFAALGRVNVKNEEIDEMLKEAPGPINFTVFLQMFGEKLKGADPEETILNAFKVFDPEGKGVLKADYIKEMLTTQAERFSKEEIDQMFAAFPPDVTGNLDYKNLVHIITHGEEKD

`Cc1ncc(C(=O)N[C@@H]2CCc3cc(-c4noc(C5CC5)n4)ccc32)o1` [Compound 388, (R)-N-(5-(5-cyclopropyl-1,2,4-oxadiazol-3-yl)-2,3-dihydro-1H-inden-1-yl)-2-methyloxazole-5-carboxamide]: the half-maximal inhibitory concentration (IC50) in test [1] (Rattus norvegicus) is 5400 ± 100 nM. In test [2], the “CDMF75 IC15” value was 900 nM and the IC50 is 2800 nM.
The matching figures for `Cc1n[nH]cc1C(=O)N[C@@H]1CCc2cc(-c3noc(C4CC4)n3)ccc21` [Compound 420, (R)-N-(5-(5-cyclopropyl-1,2,4-oxadiazol-3-yl)-2,3-dihydro-1H-inden-1-yl)-3-methyl-1H-pyrazole-4-carboxamide]: 2100 ± 50 nM, 400 nM and 1400 nM.
The corresponding values for `Cn1nnc(C(=O)N[C@@H]2CCc3cc(-c4noc(C5CC5)n4)ccc32)n1` [Compound 141, (R)—N-(5-(5-cyclopropyl-1,2,4-oxadiazol-3-yl)-2,3-dihydro-1H-inden-1-yl)-2-methyl-2H-tetrazole-5-carboxamide] are 1500 ± 50 nM, 300 nM and 900 nM.
As to `COCc1nc(-c2ccc3c(c2)CC[C@H]3NC(=O)c2nnc(C)o2)no1` [Compound 697, (R)-N-(5-(5-(methoxymethyl)-1,2,4-oxadiazol-3-yl)-2,3-dihydro-1H-inden-1-yl)-5-methyl-1,3,4-oxadiazole-2-carboxamide], in test [2], the “CDMF75 IC15” value turned out to be 900 nM and the 50% inhibitory concentration (IC50) was determined as 3700 nM. Also, in test [3] (setting [4]), the inhibition in vivo at 10 mg/kg worked out at 70 ± 2%. In addition, in test [3], the IC50 was 8300 nM and the IC10 is 3300 nM. Moreover, the inhibition in vivo at 10 mg/kg in test [3] (setting [5]) turned out to be 45 ± 3%.
`COCc1nc(-c2ccc3c(c2)CC[C@H]3NC(=O)c2ccnc(CO)c2)no1` [Compound 727, (R)-2-(hydroxymethyl)-N-(5-(5-(methoxymethyl)-1,2,4-oxadiazol-3-yl)-2,3-dihydro-1H-inden-1-yl)isonicotinamide]: in test [2], the “CDMF75 IC15” value came to 1200 nM and the IC50 was 4100 nM. Further, the inhibition in vivo at 8 mg/kg in test [3] (setting [4]) was 63 ± 1%. Besides, in test [3], the half-maximal inhibitory concentration (IC50) was 4700 nM and the IC10 was 1200 nM. In addition, in test [3] (setting [5]), the inhibition in vivo at 8 mg/kg came to 33 ± 1%.
As to `Cn1cc(C(=O)N[C@@H]2COc3cc(-c4noc(C5CC5)n4)ccc32)cn1` [Compound 236, (S)—N-(6-(5-cyclopropyl-1,2,4-oxadiazol-3-yl)-2,3-dihydrobenzofuran-3-yl)-1-methyl-1H-pyrazole-4-carboxamide], the IC50 in test [1] (Rattus norvegicus) is 11400 ± 600 nM. In test [2], the “CDMF75 IC15” value was determined as 500 nM and the IC50 amounted to 1800 nM.
As for `O=C(N[C@@H]1CCc2cc(-c3noc(C4CC4)n3)ccc21)c1cn[nH]c1` [Compound 489, (R)-N-(5-(5-cyclopropyl-1,2,4-oxadiazol-3-yl)-2,3-dihydro-1H-inden-1-yl)-1H-pyrazole-4-carboxamide], in test [2], the “CDMF75 IC15” value worked out at 600 nM and the IC50 was determined as 2200 nM. Moreover, the inhibition in vivo at 6 mg/kg in test [3] (setting [4]) was 65 ± 6%. Further, in test [3], the IC50 was 2400 nM and the IC10 is 700 nM. For the same molecule, the inhibition in vivo at 6 mg/kg in test [3] (setting [5]) was found to be 35 ± 6%.
On to `CCc1nc(-c2ccc3c(c2)CC[C@H]3NC(=O)c2nnc(C)o2)no1` [Compound 617, (R)-N-(5-(5-ethyl-1,2,4-oxadiazol-3-yl)-2,3-dihydro-1H-inden-1-yl)-5-methyl-1,3,4-oxadiazole-2-carboxamide], for which, in test [2], the “CDMF75 IC15” value came to 300 nM and the IC50 was determined as 1200 nM. In addition, the inhibition in vivo at 6 mg/kg in test [3] (setting [4]) is 64 ± 4%. Further, in test [3], the IC50 is 1200 nM and the IC10 is 300 nM. The inhibition in vivo at 6 mg/kg in test [3] (setting [5]) was 37 ± 7%.
Consider `Cn1nccc1C(=O)N[C@@H]1COc2cc(-c3noc(C4CC4)n3)ccc21` [Compound 222, (S)—N-(6-(5-cyclopropyl-1,2,4-oxadiazol-3-yl)-2,3-dihydrobenzofuran-3-yl)-1-methyl-1H-pyrazole-5-carboxamide], for which the concentration for half-maximal inhibition (IC50) in test [1] (Rattus norvegicus) was 1100 ± 30 nM. For the same molecule, in test [2], the “CDMF75 IC15” value was determined as 300 nM and the IC50 stood at 1000 nM.
The corresponding values for `Cc1nc(-c2ccc3c(c2)OC[C@H]3NC(=O)c2cn(C)nc2C)no1` [Compound 158, (S)-1,3-dimethyl-N-(6-(5-methyl-1,2,4-oxadiazol-3-yl)-2,3-dihydrobenzofuran-3-yl)-1H-pyrazole-4-carboxamide] are 1100 ± 30 nM, 700 nM and 2800 nM.
Regarding “(R)—N-(7-(5-ethyl-1,2,4-oxadiazol-3-yl)chroman-4-yl)-1-methyl-1H-pyrazole-5-carboxamide [Compound 538]”, the 50% inhibitory concentration (IC50) in test [1] is 10900 ± 370 nM; in test [2], 3300 nM. Besides, the “CDMF75 IC15” value in test [2] was found to be 700 nM.
Consider `O=C(N[C@@H]1COc2cc(-c3noc(C(F)F)n3)ccc21)c1ccnc(CO)c1` [Compound 709, (S)-N-(6-(5-(difluoromethyl)-1,2,4-oxadiazol-3-yl)-2,3-dihydrobenzofuran-3-yl)-2-(hydroxymethyl)isonicotinamide], for which, in test [2], the “CDMF75 IC15” value amounted to 600 nM and the IC50 came out at 2300 nM. Besides, the inhibition in vivo at 8 mg/kg in test [3] (setting [4]) stood at 68 ± 2%. In test [3], the IC50 was 4300 nM and the concentration for an effect of 10% (IC10) is 1500 nM. For the same molecule, in test [3] (setting [5]), the inhibition in vivo at 8 mg/kg amounted to 31 ± 3%.
As for `CCc1nc(-c2ccc3c(c2)CC[C@H]3NC(=O)c2cc(C)no2)no1` [Compound 565, (R)-N-(5-(5-ethyl-1,2,4-oxadiazol-3-yl)-2,3-dihydro-1H-inden-1-yl)-3-methylisoxazole-5-carboxamide], in test [2], the “CDMF75 IC15” value worked out at 300 nM. In addition, the values for the concentration for half-maximal inhibition (IC50) in test [2] and in test [3] were 1100 nM and 37000 nM, respectively. Further, the figures for the inhibition in vivo at 8 mg/kg in test [3] (setting [4]) and in test [3] (setting [5]) were 55 ± 13% and 43 ± 13%, respectively. Moreover, in test [3], the concentration for an effect of 10% (IC10) was 11000 nM.
For `O=C(N[C@@H]1CCc2cc(-c3noc(C(F)F)n3)ccc21)c1ccnc(CO)c1` [Compound 664, (R)-N-(5-(5-(difluoromethyl)-1,2,4-oxadiazol-3-yl)-2,3-dihydro-1H-inden-1-yl)-2-(hydroxymethyl)isonicotinamide], in test [2], the “CDMF75 IC15” value was 500 nM and the IC50 was 1900 nM. Besides, the inhibition in vivo at 6 mg/kg in test [3] (setting [4]) was found to be 65 ± 4%. Further, in test [3], the IC50 is 3300 nM and the 10% effect concentration (IC10) was 1200 nM. The inhibition in vivo at 6 mg/kg in test [3] (setting [5]) was determined as 38 ± 5%.
For the molecule `CCc1nc(-c2ccc3c(c2)CC[C@H]3NC(=O)c2ccc(=O)n(C)c2)no1` [Compound 589, (R)-N-(5-(5-ethyl-1,2,4-oxadiazol-3-yl)-2,3-dihydro-1H-inden-1-yl)-1-methyl-6-oxo-1,6-dihydropyridine-3-carboxamide], in test [2], the “CDMF75 IC15” value turned out to be 700 nM and the IC50 came to 2300 nM. Moreover, the inhibition in vivo at 6 mg/kg in test [3] (setting [4]) worked out at 73 ± 12%. Also, in test [3], the IC50 is 1600 nM and the concentration for an effect of 10% (IC10) is 300 nM. In addition, the inhibition in vivo at 6 mg/kg in test [3] (setting [5]) is 46 ± 3%.
Turning to `CCc1nc(-c2ccc3c(c2)CC[C@H]3NC(=O)c2ccnc(CO)c2)no1` [Compound 577, (R)-N-(5-(5-ethyl-1,2,4-oxadiazol-3-yl)-2,3-dihydro-1H-inden-1-yl)-2-(hydroxymethyl)isonicotinamide], in test [2], the “CDMF75 IC15” value was determined as 400 nM and the 50% inhibitory concentration (IC50) is 1300 nM. Also, the inhibition in vivo at 4 mg/kg in test [3] (setting [4]) came out at 67 ± 6%. In test [3], the IC50 is 700 nM and the 10% effect concentration (IC10) was 100 nM. Also, the inhibition in vivo at 4 mg/kg in test [3] (setting [5]) stood at 34 ± 11%.
